Laboratory results as given in US20180021315A1, “METHODS OF TREATING HEARING DISORDERS” (Wayne State University, priority 2016, published 2018).
Entries after “also recorded” stand apart in the source; their conditions may differ.

Key:
TNF-α [1] = assay: Blast-induced TNF-α protein levels in auditory brain regions (ELISA and Western blot); assay type: in vivo, rat
Procedure: The therapeutic drug used was 3,6′-dithiothalidomide, which was synthesized according to a published procedure to greater than 99.8% chemical purity (Baratz et al., 2011; W. Luo et al., 2008). The drug was freshly prepared prior to each study. 3,6′-dithiothalidomide was prepared as a suspension in 1% carboxymethyl cellulose to provide a final concentration of 28 or 56 mg/kg (0.1 mL/10 g and 0.1 mL/100 g body weight injection in mice and rats, respectively), and was administered intraperitoneally (i.p.). These concentrations of 3,6′-dithiothalidomide are equimolar to 25 and 50 mg/kg of thalidomide.
(§1) Each of the rats was subjected to blast exposure in the left ear using a shock tube (ORA Inc.) located at the Wayne State University Bioengineering Center. The blast exposure of each rat was performed under anesthesia with a mixture of air (1 liter/min) and isoflurane (5% v/v). The rat was placed on supportive netting with a metal surround and secured on a pole with its head facing the oncoming shockwave. During blast exposure, the rat's right ear was occluded with a silicone earplug (Mack's; McKeon Products, Warren, Mich.), followed by application of mineral oil to seal any remaining openings. The average energy under 10 kHz measured at 22 psi was equivalent to 150 kPa or 197.5 dB SPL. After blast exposure, each rat was transferred to a polycarbonate cage.
Two exposed groups received either 56 mg/kg 3,6′-dithiothalidomide i.p. or vehicle for two days starting on the same day of the blast exposure. Another two exposed groups received 56 mg/kg 3,6′-dithiothalidomide i.p. or vehicle treatment for five days starting on the day of the blast exposure. Two more exposed groups received 56 mg/kg 3,6′-dithiothalidomide i.p. or vehicle treatment for five days starting on the fifth day after blast exposure. On the last day of the drug/vehicle injection, brain samples were collected. ELISA and Western blot was performed to determine the effects of blast and 3,6′-dithiothalidomide treatment on TNF-α protein levels.

C75BL6 mice = assay: Noise-induced tinnitus, gap detection, 3,6′-dithiothalidomide; assay type: in vivo, mouse
Procedure: Tinnitus was assessed using the gap detection paradigm.
A group of C75BL6 mice underwent 4 days of gap detection testing. On the fifth day, the mice were exposed to 123-dB noise in their left ears for two hours, which was followed immediately by the administration of 3,6′-dithiothalidomide at a dose of 28 mg/kg. The drug was administered daily for five days. On day 10 post noise exposure, gap detection tests were resumed to test the animals' performance. Impaired gap detection compared to prenoise exposure performance is behavioral evidence of tinnitus.

TNF-α [2] = assay: TNF-α immunostaining densitometry of microglia and astrocytes after blast; assay type: in vivo, rat
Source text: FIGS. 23A and 23B depict densitometry measurements of ionized calcium-binding adapter molecule 1 (Iba-1) and TNF-α expression, respectively, as observed by fluorescence microscopy of immunohistochemistry-stained microglia. […] Error bars in FIGS. 23A-23B depict standard deviation.
(§2) FIGS. 24A and 24B depict densitometry measurements of glial fibrillary acidic protein (GFAP) and TNF-α expression, respectively, as observed by fluorescence microscopy of immunohistochemistry-stained AC astrocytes. […] The decrease in astrocyte TNF-α expression was relatively smaller than the decrease in microglial TNF-α expression (compare […] with FIG. 23B). […] Error bars in FIGS. 24A-24B depict standard deviation.

[3] = test system: glial fibrillary acidic protein (GFAP); assay: GFAP immunostaining densitometry of AC astrocytes after blast; assay type: in vivo, rat; details: immunostained AC astrocytes, FIG. 24B
Source text: as §2

blast-exposed rats = assay: Blast-induced tinnitus behavioral testing (gap detection and PPI, startle reflex), 3,6′-dithiothalidomide; assay type: in vivo, rat
Procedure: as §1
Thirty two rats from Example 10 were used. Behavioral tinnitus testing, including gap detection and PPI testing, was conducted with Hamilton-Kinder startle-reflex hardware and software. During behavioral testing, each rat was placed in an individual noise-attenuation chamber to perform gap and PPI testing. In the gap procedure, each rat was presented with a constant 60-dB SPL background noise composed of 2,000 Hz bandpass signals at 6-8, 10-12, 14-16, 18-20, or 26-28 kHz or broadband noise (BBN; 2-30 kHz). A 115 dB SPL, 50 ms noise-burst was used as the startle stimulus to induce the acoustic startle reflex. The background noise session contained two conditions, one condition was the startle only condition in which rat was presented with the startle stimulus alone, and the other condition was the gap condition in which a rat was presented with a startle stimulus preceded by a silent gap embedded within the background noise. Silent gaps were 40 ms in duration with a lead interval of 90 ms to the startle stimulus. The startle reflex of rats was measured in response to 3 conditions: 1) background noise alone, 2) startle only, and 3) gap. Detection of the gap results in a reduction in the startle amplitude. Development of tinnitus in a specific frequency band impairs gap detection in the corresponding gap-carrier band, and thus, the startle amplitude reaches amplitudes elicited without the gap. For the PPI procedure, the parameters were almost the same as with gap except that no background noise or silent gap was used. The startle amplitude of rats in response to the two conditions was measured: the startle-only condition and a prepulse followed by the startle stimulus. In the latter condition, a 60-dB SPL, 40-msec prepulse was introduced 90 msec before the startle stimulus. The acoustic startle reflex of the rat decreased in response to the prepulse except when the rat had hearing loss at a frequency similar to the prepulse.
Rats were exposed or sham-exposed to a blast shockwave. To determine whether TNF-α is involved in blast-induced tinnitus, the rats were injected once daily for 5 days with 3,6′-dithiothalidomide starting 7 days after blast exposure. Behavioral testing and ABR recordings started 1 day after drug injection and lasted for three weeks.

Pyramidal neurons = assay: Patch clamp mIPSC and mEPSC in brain slices after noise exposure; assay type: in vivo, mouse
Procedure: Three groups of C75BL6 mice were used. Two were exposed to 123-dB noise in the left ear for two hours. Animals in one of the two exposed group were administered 3,6′-dithiothalidomide. The drug was administered daily for five days. The remaining third group underwent the same procedure but without noise exposure or drug administration. On day 10 post-noise exposure, animals were euthanized and brain slices were prepared. Pyramidal neurons in the brain slices were recorded as described above. Miniature inhibitory and excitatory synaptic transmissions (mIPSC and mEPSC) were examined.

O=C1NC(=S)CCC1N1C(=O)c2ccccc2C1=S (centres unmarked) [3,6′-dithiothalidomide]
TNF-α protein levels in AC, ELISA (TNF-α [1]; blast-exposed rat AC, 56 mg/kg i.p., FIG. 10): reduced TNF-α protein levels
TNF-α protein levels in DCN, ELISA (TNF-α [1]; blast-exposed rat DCN, 56 mg/kg i.p., FIG. 11): reduced TNF-α protein levels
TNF-α protein levels in IC, ELISA (TNF-α [1]; blast-exposed rat IC, 56 mg/kg i.p., FIG. 12): reduced TNF-α protein levels
statistical significance of the reduction of TNF-α protein levels in IC (TNF-α [1]; blast-exposed rat IC, FIG. 12): did not achieve statistical significance
translational/posttranslational increase in the TNF-α protein level (TNF-α [1]; blast-exposed rats): cannot block such an increase
reduction in TNF-α protein levels in DCN vs corresponding vehicle group (TNF-α [1]; group treated five days starting on the day of blast (5 Days), P<0.05): statistical significance
reduction in TNF-α protein levels in AC vs corresponding vehicle group (TNF-α [1]; group treated five days starting on the fifth day after blast (10 Days), P<0.05): statistical significance
statistical significance of the reduction of TNF-α protein levels in AC and DCN (TNF-α [1]; rat AC and DCN, vs vehicle, P<0.05): reached statistical significance; also recorded: significant reduction
TNF-α protein levels after blast exposure (TNF-α [1]; rat AI, DCN and IC, 56 mg/kg i.p., 2, 5 and 10 days after blast, FIGS. 10-13): partially reduced TNF-α protein levels
noise-induced tinnitus (startle-response ratio) (C75BL6 mice; 28 mg/kg, FIG. 25): prevents noise-induced tinnitus in mice
gap detection performance after noise exposure (C75BL6 mice; 123-dB noise 2 h, 28 mg/kg daily for five days, tested day 10 post exposure): not significantly altered
blast-induced astrocyte TNF-α expression (TNF-α [2]; immunostained AC astrocytes, FIG. 24A): partially blocked
blast-induced microglial TNF-α expression (TNF-α [2]; immunostained microglia, FIG. 23B): is blocked
blast-induced astrocyte GFAP expression [3]: is blocked
startle force of the startle-only condition, gap test (blast-exposed rats; acute tinnitus rats, 56 mg/kg i.p., post drug vs post blast, FIG. 14A): recovered significantly
startle force of the startle-only condition, PPI test (blast-exposed rats; acute tinnitus rats, 56 mg/kg i.p., post drug vs post blast, FIG. 14B): recovered significantly
gap ratio values (gap/startle-only response) (blast-exposed rats; deficit at 7 days after blast, after 5 days of treatment, FIG. 15A): recovered significantly
PPI ratio values (PPI/startle-only response) (blast-exposed rats; deficit at 7 days after blast, after 5 days of treatment, FIG. 15B): recovered significantly
tinnitus score (blast-exposed rats; tinnitus 7 days after blast, after 5 days of treatment, FIG. 16A): recovered significantly
mIPSC frequency (noise-induced reduction) (Pyramidal neurons; mice, 123-dB noise 2 h, 28 mg/kg daily for five days, day 10, FIG. 26A, 28 mg/kg): completely reversed; also recorded: rescues the reduction in mIPSC frequency
mIPSC amplitude (noise-induced reduction) (Pyramidal neurons; mice, 123-dB noise 2 h, 28 mg/kg, FIG. 26B): rescues the reduction in mIPSC amplitude
mEPSC frequency (Pyramidal neurons; noise-exposed treated mice relative to control mice, FIG. 26C): no effect
mEPSC amplitude (Pyramidal neurons; noise-exposed treated mice relative to control mice, FIG. 26D): no significant effect
